Data as given in US11401286B2 (Tetra Discovery Partners, LLC, priority 2012, dated 2022).
pIC50: −log10 of the molar value. Structures can show the parent of a compound that is named as a salt.

System: recombinant human PDE4
Conditions: reported value; read-out: IC50 with respect to inhibiting recombinant human PDE4; cited from earlier work

SMILES	pIC50
COc1ccc(C2CNC(=O)C2)cc1OC1CCCC1 (stereo not drawn) [rolipram]	~6.70

Target: PDE4D7 (Homo sapiens (Human), UniProt Q08499)
Conditions: not given

Sequence of PDE4D7 (Q08499 other isoform, or with tags, fused parts or gaps): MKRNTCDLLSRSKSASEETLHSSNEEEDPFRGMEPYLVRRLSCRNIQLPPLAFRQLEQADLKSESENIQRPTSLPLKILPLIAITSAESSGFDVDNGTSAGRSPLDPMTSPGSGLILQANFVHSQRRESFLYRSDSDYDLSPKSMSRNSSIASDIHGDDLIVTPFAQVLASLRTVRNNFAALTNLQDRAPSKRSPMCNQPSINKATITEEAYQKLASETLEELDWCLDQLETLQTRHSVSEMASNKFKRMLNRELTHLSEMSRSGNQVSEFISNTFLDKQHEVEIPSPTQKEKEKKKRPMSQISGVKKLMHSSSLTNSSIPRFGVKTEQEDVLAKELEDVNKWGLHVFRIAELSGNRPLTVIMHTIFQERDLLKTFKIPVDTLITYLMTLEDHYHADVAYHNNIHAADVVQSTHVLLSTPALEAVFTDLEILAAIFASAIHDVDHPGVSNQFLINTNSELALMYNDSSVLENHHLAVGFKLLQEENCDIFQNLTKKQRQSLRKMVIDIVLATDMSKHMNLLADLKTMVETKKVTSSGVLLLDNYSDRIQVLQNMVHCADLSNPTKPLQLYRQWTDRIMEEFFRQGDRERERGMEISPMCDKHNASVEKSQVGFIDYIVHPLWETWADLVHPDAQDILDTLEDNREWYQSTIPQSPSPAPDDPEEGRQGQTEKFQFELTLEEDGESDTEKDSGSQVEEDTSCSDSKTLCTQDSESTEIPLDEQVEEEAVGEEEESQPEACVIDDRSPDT

SMILES	pIC50
CCCNC(=O)Cc1ccc(Cc2cc(CC)nc(-c3cccc(Cl)c3)n2)cc1 [Example 193, 2-(4-((2-(3-Chlorophenyl)-6-ethylpyrimidin-4-yl)methyl)phenyl)-N-propylacetamide]	< 6.00

Same assay, conditions: read-out: PDE4D7 IC50; PDE4D7 without asterisk

SMILES	pIC50
OCCc1ccc(Nc2cc(C3=CCCC3)nc3c2CCC3)cc1 [Example 248, 2-(4-((2-(Cyclopent-1-en-1-yl)-6,7-dihydro-5H-cyclopenta[b]pyridin-4-yl)amino)phenyl)ethanol hydrochloride]	< 6.00
NC(=O)CCc1ccc(Nc2cc(-c3cccc(Cl)c3)nc3c2CCC3)cc1 [Example 119, 3-(4-((2-(3-chlorophenyl)-6,7-dihydro-5H-cyclopenta[b]pyridin-4-yl)amino)phenyl)propanamide hydrochloride]	< 6.00
NC(=O)Cc1ccc(Nc2cc(C3=CCCC3)nc3c2CCC3)cc1 [Example 246, 2-(4-((2-(Cyclopent-1-en-1-yl)-6,7-dihydro-5H-cyclopenta[b]pyridin-4-yl)amino)phenyl)acetamide hydrochloride]	< 6.00
OCCc1ccc(Nc2cc(OC3CCCC3)nc3c2CCC3)cc1 [Example 257, 2-(4-((2-(Cyclopentyloxy)-6,7-dihydro-5H-cyclopenta[b]pyridin-4-yl)amino)phenyl)ethanol hydrochloride]	< 6.00
Cc1cccc(-c2cc(Nc3ccc(CCO)cc3)c3c(n2)CCC3)c1 [Example 160, 2-(4-((2-(m-Tolyl)-6,7-dihydro-5H-cyclopenta[b]pyridin-4-yl)amino)phenyl)ethanol hydrochloride]	< 6.00
Clc1cccc(-c2cc(Nc3ccc(Cc4ncco4)cc3)c3c(n2)CCC3)c1 [Example 114, 2-(3-Chlorophenyl)-N-(4-(oxazol-2-ylmethyl)phenyl)-6,7-dihydro-5H-cyclopenta[b]pyridin-4-amine hydrochloride]	< 6.00
OCCc1ccc(Nc2nc(C3CCCC3)nc3c2CCC3)cc1 [Example 217, 2-(4-((2-Cyclopentyl-6,7-dihydro-5H-cyclopenta[d]pyrimidin-4-yl)amino)phenyl)ethanol]	< 6.00
NC(=O)CCCc1ccc(Nc2cc(-c3cccc(Cl)c3)nc3c2CCC3)cc1 [Example 130, 4-(4-((2-(3-Chlorophenyl)-6,7-dihydro-5H-cyclopenta[b]pyridin-4-yl)amino)phenyl)butanamide hydrochloride]	< 6.00

Further lines, results first:

pIC50	SMILES
< 6.00	CCc1c(C)nc(-c2ccc(Cl)s2)nc1Nc1ccc(Cc2nc(C(=O)OC)c[nH]2)cc1 [Example 305, Methyl 2-[[4-[[2-(5-chloro-2-thienyl)-5-ethyl-6-methyl-pyrimidin-4-yl]amino]phenyl]methyl]-1H-imidazole-4-carboxylate]
> 6.00	CCc1nc(Nc2ccc(CCO)cc2)nc(-c2cccc(Cl)c2)n1 [Example 58, 2-(4-(4-(3-chlorophenyl)-6-ethyl-1,3,5-triazin-2-ylamino)phenyl)ethanol]
> 6.00	CCc1cc(Nc2ccc(Cn3cccn3)cc2)nc(-c2cccc(Cl)c2)n1 [Example 189, N-(4-((1H-Pyrazol-1-yl)methyl)phenyl)-2-(3-chlorophenyl)-6-ethylpyrimidin-4-amine]
> 6.00	O=C(O)c1ccc(Nc2nc(-c3ccc(Cl)cc3)nc(C3CC3)n2)cc1 [Example 38, 4-((4-(4-chlorophenyl)-6-cyclopropyl-1,3,5-triazin-2-yl)amino)benzoic acid]
< 6.00	O=C(O)Cc1ccc(Nc2cc(C(F)(F)F)nc(-c3ccc(Cl)s3)n2)cc1 [Example 296, 2-[4-[[2-(5-Chloro-2-thienyl)-6-(trifluoromethyl)pyrimidin-4-yl]amino]phenyl]acetic acid]
> 6.00	CC(C)c1nc(Nc2ccc(C(=O)O)cc2)nc(-c2ccc(Cl)s2)n1 [Example 29, 4-(4-(5-chlorothiophen-2-yl)-6-isopropyl-1,3,5-triazin-2-ylamino)benzoic acid]
< 6.00	CCc1c(C)nc(-c2ccc(Cl)s2)nc1Nc1ccc2c(c1)CS(=O)(=O)C2 [Example 312, 2-(5-Chloro-2-thienyl)-N-(2,2-dioxo-1,3-dihydro-2-benzothiophen-5-yl)-5-ethyl-6-methyl-pyrimidin-4-amine]
< 6.00	O=C(O)Cc1ccc(Nc2nc(-c3ccc(Cl)s3)nc(C3CC3)n2)cc1 [Example 34, 2-(4-(4-(5-chlorothiophen-2-yl)-6-cyclopropyl-1,3,5-triazin-2-ylamino)phenyl)acetic acid]
